Type in all cases: physicochemical
Data set [1] in a line: Stability study: storage of the polymorph under ambient conditions, XRPD afterwards. From the text: The HCl1 polymorph, which was a hard bulky material, was placed in a closed Amber bottle and stored under ambient conditions. Four months later, the bottle was opened, and the hard bulky material was now a free flowing powder. An XRPD was taken of this free flowing powder.

Data set [2] can be described thus: Thermogravimetric analysis (TGA). Particulars: ramp 15° C./minute. The procedure:
The sample pan was tared, and sample of (S)-3-aminomethyl-7-(3-hydroxy-propoxy)-3H-benzo[c][1,2]oxaborol-1-ol polymorph form HCl4 prepared in Example 2, Method-B, was placed in the pan. The temperature was ramped at a rate of 15° C./minute.
The TGA thermogram of polymorph form HCl3 was acquired using a TA Instruments Q500 Thermogravimetric Analyzer. The sample pan was tared, and sample of (S)-3-aminomethyl-7-(3-hydroxy-propoxy)-3H-benzo[c][1,2]oxaborol-1-ol polymorph form HCl3 prepared as described above was placed in the pan. The temperature was ramped at a rate of 15° C./minute. A weight-loss of 4.7% between 27 and 104° C. was observed and is associated with water-loss due to dehydration.

Data set [3] in a line: Differential scanning calorimetry (DSC). The conditions noted are these: ramp 15° C./minute, loose lid aluminum pan. The protocol:
Instrument: TA Instruments Thermal Analysis System, Model DSC Q100
Key Operating Parameters:
Module—DSC Standard Cell FC
Method 1: Equilibrate at 25.00° C.
The DSC thermogram was acquired using a TA Instruments Q100 Differential Scanning calorimeter, as indicated above. A sample of (S)-3-aminomethyl-7-(3-hydroxy-propoxy)-3H-benzo[c][1,2]oxaborol-1-ol polymorph form HCl4 prepared in Example 2, Method B, was accurately weighed out directly into an aluminum DSC pan. The pan was sealed by applying pressure by hand and pushing each part of the pan together (also known as a loose lid configuration). The temperature was ramped at a rate of 15° C./minute. An endothermic transition having an onset of 178.1° C. was measured, and is associated with a decomposition event.

Data set [4] is described as follows: Form screen with competitive ripening experiments (Raman/XPRD grouping). Particulars: for relative polymorph stability (additional studies incl. single crystal form screen): 48 solvents/solvent mixtures, four crystallization modes, room temperature. The procedure: Alternative methods for preparing polymorph form HCl1, form HCl2, form HCl4, and form HCl5 involve the use of a form screen procedure. The input material for the screen was a nonsolvated form of the hydrochloride salt of (S)-3-aminomethyl-7-(3-hydroxy-propoxy)-3H-benzo[c][1,2]oxaborol-1-ol. […] Screening was conducted in a total of 48 solvents/solvent mixtures using four different crystallization modes listed below. The solvents included water, methanol, 1-propanol, nitromethane, acetonitrile, dimethylsulfoxide, acetone, 2-butanone, dichloromethane, methyl acetate, […], ethyl acetate, chlorobenzene, tetrahydrofuran, 1,4-dioxane, isopropyl ether, toluene, cyclohexane, heptanes, 1-butanol, 2-propanol, trifluoroethanol, dimethyl carbonate, t-butyl methyl ether, isopropyl acetate, ethanol, 1-methoxy-2-propanol, cyclohexanone, dimethyl formamide, 2-methoxyethyl ether, methanol:5 vol % H2O, acetonitrile:5 vol % H2O, acetone:5 vol % H2O, tetrahydrofuran:5 vol % H2O, 2-propanol:5 vol % H2O, methanol:10 vol % H2O, acetonitrile:10 vol % H2O, acetone:10 vol % H2O, tetrahydrofuran:10 vol % H2O, dioxane:10 vol % H2O, 2-propanol:10 vol % H2O, isopropanol+10% dimethylsulfoxide, acetonitrile+10% dimethylsulfoxide, and n-methylpyrrolidone.
Vapor diffusions were also conducted in selected solvents. The four crystallization modes used were: • temperature-cycled ripening of slurries • rapid cooling of room-temperature solutions • room-temperature evaporation of solutions • vapor diffusion of solvent/anti-solvent combinations Characterization:
All samples from the screen were isolated and analyzed by Raman spectroscopy. The samples were then grouped based on Raman spectral match. Representative samples from each of the groups were further analyzed by additional analytical techniques as appropriate (XPRD, DSC, TG-IR, PLM, etc.).
The temperature-cycle, rapid cool, and vapor diffusion samples formed a single group (Group A/Input) based on Raman and XPRD analyses. Most evaporative samples also produced Group A. However, five additional groups (Group B, Group C, Group D, Group E, and Group F) were produced from evaporative and evaporative scale-up experiments based on Raman analyses. These groups were selected for further analysis and/or scale-up.
Group B was an evaporative experiment from nitromethane produced in very low yields (<3 mg). This sample was analyzed by Raman, XPRD, and DSC. Insufficient sample was present for TG-IR (thermogravimetric-infrared spectroscopy). Six scale-up experiments were set up and each produced an amorphous or oily solid. […]
Group C was produced from two evaporative experiments from acetone and 2-butanone in very low yields (<1 mg). This sample was analyzed by Raman, and insufficient sample was present for further analysis. […]

A short description of data set [5]: Storage of Form HCl5 (sealed vial / room temperature). The procedure: A solution of isopropanol containing 20% water by volume was added to a vial containing approximately 25 mg of polymorph form HCl4. The resulting mixture was stirred as the temperature was cycled between 0 and 40° C. over the course of 48 hours. The solution was isolated by filtration and evaporated to dryness. The freshly isolated product was verified to be Form HCl5.

These results are taken from US8461364B2, “Polymorphs of (S)-3-aminomethyl-7-(3-hydroxy-propoxy)-3H-benzo[C][1,2]oxaborol-1-OL” (GlaxoSmithKline LLC, priority 2008, dated 2013).

SMILES strings stand for the structures. A value given as a limit tells only on which side of the number the result lay.

Take `Cl.NC[C@H]1OB(O)c2c(OCCCO)cccc21` [polymorph form HCl1, (S)-3-aminomethyl-7-(3-hydroxy-propoxy)-3H-benzo[c][1,2]oxaborol-1-ol.HCl]: the “solid form after storage (XRPD)” value in data set [1] (closed Amber bottle, ambient conditions, four months) is “converted into the HCl4 form during storage”.

For `Cl.NC[C@H]1OB(O)c2c(OCCCO)cccc21` [polymorph form HCl3, (S)-3-aminomethyl-7-(3-hydroxy-propoxy)-3H-benzo[c][1,2]oxaborol-1-ol.HCl], the “weight-loss (water-loss due to dehydration)” value in data set [2] (between 27 and 104° C.) is 4.7%.

In the case of `Cl.NC[C@H]1OB(O)c2c(OCCCO)cccc21` [polymorph form HCl4, (S)-3-aminomethyl-7-(3-hydroxy-propoxy)-3H-benzo[c][1,2]oxaborol-1-ol.HCl], the “stepwise weight-loss (water-loss due to reversible chemical transformation)” value in data set [2] (between 162 and 214° C.) is reported as 6.4%. The “temperature beyond which further decomposition is observed” value in data set [2] is > 214 °C. The relative polymorph stability entry in data set [1] (from conversion during four months storage at ambient conditions) is recorded as “more stable polymorph than HCl1”. Besides, the “onset of endothermic transition associated with a decomposition event” value in data set [3] is 178.1 °C. The “relative polymorph stability (additional studies incl. single crystal form screen)” value in data set [4] is “most stable polymorph”; in data set [4] (listed as input material) it was “most stable form at room temperature”. Also, the “stability compared to other polymorphs of the HCl salt” value in data set [4] (physical and/or chemical stability, general statement) was “increased stability”.

For `Cl.NC[C@H]1OB(O)c2c(OCCCO)cccc21` [polymorph form HCl5, (S)-3-aminomethyl-7-(3-hydroxy-propoxy)-3H-benzo[c][1,2]oxaborol-1-ol.HCl], in data set [5] (sealed vial, at least 7 days), the form after storage result was “conversion to Form HCl3”. For the same compound, the stability on storage entry in data set [5] (stored at room temperature) is “unstable when stored at room temperature and converts to Form HCl3”. The “stability of isolated form (Raman)” value in data set [4] (sample from very slow evaporation from acetone with 20% water) was “unstable and converted to Group E”.
